Where two headings read alike, the source gives them in different places.
What was measured:
[1] = target: T1, full length N-terminally FLAG-tagged PARP1 (Homo sapiens, UniProt P09874); assay: PARP1 probe displacement HTRF assay; conditions: for Selectivity: PARP1 over PARP2, ratio Kd (PARP2)/Kd (PARP1); for Kd: binned Kd
[2] = target: T2, N-terminally FLAG-tagged PARP2 (amino acids 1-583) (Homo sapiens, UniProt Q9UGN5); assay: PARP2 probe displacement HTRF assay; assay type: binding; conditions: binned Kd
T2 construct: N-terminally FLAG-tagged PARP2 (amino acids 1-583)
T2 sequence (Q9UGN5 whole entry, the tested form may be a part): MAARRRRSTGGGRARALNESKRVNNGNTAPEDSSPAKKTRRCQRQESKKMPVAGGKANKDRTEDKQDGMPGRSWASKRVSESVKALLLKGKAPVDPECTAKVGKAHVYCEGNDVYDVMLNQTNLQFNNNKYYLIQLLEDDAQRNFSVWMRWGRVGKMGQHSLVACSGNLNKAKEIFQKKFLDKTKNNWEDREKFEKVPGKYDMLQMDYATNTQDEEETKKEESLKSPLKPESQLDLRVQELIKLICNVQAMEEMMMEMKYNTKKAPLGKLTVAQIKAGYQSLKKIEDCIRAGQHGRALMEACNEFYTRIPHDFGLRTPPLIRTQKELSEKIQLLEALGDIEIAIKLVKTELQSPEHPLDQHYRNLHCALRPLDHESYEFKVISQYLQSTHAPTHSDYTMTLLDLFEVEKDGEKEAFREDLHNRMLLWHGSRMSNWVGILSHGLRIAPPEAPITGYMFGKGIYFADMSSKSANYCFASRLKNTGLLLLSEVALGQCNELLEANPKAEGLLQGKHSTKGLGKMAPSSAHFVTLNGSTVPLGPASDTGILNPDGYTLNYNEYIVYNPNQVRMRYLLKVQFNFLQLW
Procedure: Data analysis was performed identical as for PARP1.

[3] = target: T1, full length N-terminally FLAG-tagged PARP1; assay: PARP1 biochemical DELFIA assay (auto-PARylation); design: recombinant full length human N-terminally FLAG-tagged PARP1
[4] = read-out: PARP1 HTRF, probe displacement HTRF
[5] = binned IC50, biochemical auto-PARylation assay
[6] = read-out: PARP1 HTRF, PARP1 probe displacement HTRF
[7] = binned IC50, PARP1 biochemical DELFIA assay
[8] = PARP1 HTRF, probe displacement HTRF
[9] = PARP1 HTRF, PARP1 probe displacement HTRF

T1 sequence (P09874 whole entry, the tested form may be a part): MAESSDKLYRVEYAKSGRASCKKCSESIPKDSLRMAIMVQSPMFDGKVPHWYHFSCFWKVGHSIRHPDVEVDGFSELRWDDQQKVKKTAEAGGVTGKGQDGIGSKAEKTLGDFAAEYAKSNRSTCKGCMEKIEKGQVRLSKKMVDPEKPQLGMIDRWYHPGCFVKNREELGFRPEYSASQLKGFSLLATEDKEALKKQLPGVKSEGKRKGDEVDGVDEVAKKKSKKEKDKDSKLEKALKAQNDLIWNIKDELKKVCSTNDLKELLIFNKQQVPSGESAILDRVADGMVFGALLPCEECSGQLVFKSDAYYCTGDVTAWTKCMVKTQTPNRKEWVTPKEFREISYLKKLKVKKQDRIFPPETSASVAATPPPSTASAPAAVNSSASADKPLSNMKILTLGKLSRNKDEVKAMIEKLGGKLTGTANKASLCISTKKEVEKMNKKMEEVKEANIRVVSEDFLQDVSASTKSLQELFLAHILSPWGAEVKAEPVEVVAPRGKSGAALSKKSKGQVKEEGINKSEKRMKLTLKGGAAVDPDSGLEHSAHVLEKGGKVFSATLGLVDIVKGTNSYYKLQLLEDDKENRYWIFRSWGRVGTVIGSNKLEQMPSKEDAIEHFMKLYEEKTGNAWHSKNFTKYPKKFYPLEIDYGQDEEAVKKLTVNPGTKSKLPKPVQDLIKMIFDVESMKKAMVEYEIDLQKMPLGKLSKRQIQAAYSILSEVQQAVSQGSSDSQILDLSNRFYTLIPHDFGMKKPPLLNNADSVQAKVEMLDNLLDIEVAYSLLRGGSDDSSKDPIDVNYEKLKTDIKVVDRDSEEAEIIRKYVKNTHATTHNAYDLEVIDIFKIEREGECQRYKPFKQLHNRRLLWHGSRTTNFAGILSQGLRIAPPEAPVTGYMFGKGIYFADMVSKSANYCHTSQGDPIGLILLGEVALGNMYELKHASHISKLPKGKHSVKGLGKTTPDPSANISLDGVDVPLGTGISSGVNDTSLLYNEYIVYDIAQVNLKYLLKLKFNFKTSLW

Kd [1, 4] | Kd ([2]; probe displacement HTRF) | IC50 [3, 5] | Kd [1, 6] | Kd ([2]; PARP2 probe displacement HTRF) | IC50 [3, 7] | Kd [1, 8] | Kd [1, 9] | SMILES | Selectivity ([1]; probe displacement HTRF)
0.1 to 1 µM | > 10 µM | 0.1 to 1 µM |  |  |  |  |  | CNC(=O)c1ccc(N2CCC(N3CCC(F)(c4nc5ccccc5c(=O)[nH]4)C3)CC2)cn1 (single isomer, unassigned) [Compound 328a] | + (+ indicates a value of 10 to less than 50)
 |  |  | 0.1 to 1 µM | > 10 µM | 0.1 to 1 µM |  |  | CNC(=O)c1ccc(N2CCC(N3CCCC(c4nc5sc(C)c(C)c5c(=O)[nH]4)C3)CC2)cn1 (single isomer, unassigned) [Compound 199b] | + (+ indicates a value of 10 to less than 50)
 |  |  | < 0.01 µM | > 10 µM | < 0.01 µM |  |  | CNC(=O)c1ccc(N2CCC(N3CCC(c4cc5cccnc5c(=O)[nH]4)C3)CC2)cn1 (racemic) [Compound 203rac] | +++ (+++ indicate a value of at least 100)
 |  |  | 0.1 to 1 µM | > 10 µM | 0.1 to 1 µM |  |  | CNC(=O)c1ccc(N2CCC(N3CCCC(c4nc5onc(C)c5c(=O)[nH]4)C3)CC2)cn1 (single isomer, unassigned) [Compound 159b] | + (+ indicates a value of 10 to less than 50)
1 to 10 µM | > 10 µM | 0.1 to 1 µM |  |  |  |  |  | CCCc1ccc(C2CCN(C3CCN(c4ccc(C(=O)NC)nc4)CC3)C2)[nH]c1=O (single isomer, unassigned) [Compound 261a] | − (− indicates a value of less than 10)
 | 0.1 to 1 µM | < 0.01 µM |  |  |  | < 0.01 µM |  | CNC(=O)c1ccc(N2CCC(N3CC4(c5nc6c(c(=O)[nH]5)CCCN6C)CC3C4)CC2)c(F)n1 [Compound 375, 6-fluoro-N-methyl-5-(4-(4-(8-methyl-4-oxo-3,4,5,6,7,8-hexahydropyrido[2,3-d]pyrimidin-2-yl)-2-azabicyclo[2.1.1]hexan-2-yl)piperidin-1-yl)picolinamide] | + (+ indicates a value of 10 to less than 50)
< 0.01 µM | 0.01 to 0.1 µM | < 0.01 µM |  |  |  |  |  | CNC(=O)c1ccc(N2CCC(N3CCC(c4nc5ccc(F)c(F)c5c(=O)[nH]4)C3)CC2)cn1 (single isomer, unassigned) [Compound 222b] | +++ (+++ indicate a value of at least 100)
1 to 10 µM | > 10 µM | 1 to 10 µM |  |  |  |  |  | CCc1ccc(C2CCN(C3CCN(c4cnc(C(=O)NC)cc4C(F)(F)F)CC3)C2)[nH]c1=O (single isomer, unassigned) [Compound 298a] | − (− indicates a value of less than 10)
 |  |  | < 0.01 µM | 0.1 to 1 µM | < 0.01 µM |  |  | CNC(=O)c1ccc(N2CCC(N3CCC(c4cc5cccc(F)c5c(=O)[nH]4)C3)CC2)nn1 (single isomer, unassigned) [Compound 209a] | +++ (+++ indicate a value of at least 100)
 |  |  | 0.01 to 0.1 µM | > 10 µM | < 0.01 µM |  |  | CNC(=O)c1ccc(N2CCC(N3CCCC(c4ccc(CC(F)(F)F)c(=O)[nH]4)C3)CC2)cn1 (single isomer, unassigned) [Compound 169b] | +++ (+++ indicate a value of at least 100)
 |  |  | 0.01 to 0.1 µM | > 10 µM | 0.01 to 0.1 µM |  |  | CNC(=O)c1ccc(N2CCC(N3CCC(c4cc5c(C(F)(F)F)cccc5c(=O)[nH]4)C3)CC2)cn1 (single isomer, unassigned) [Compound 167a] | ++ (++ indicates a value of 50 to less than 100)
 |  |  |  | 0.1 to 1 µM | < 0.01 µM |  | < 0.01 µM | CNC(=O)c1ccc(N2CCC(CN3CCC(c4nc5c(Cl)cccc5c(=O)[nH]4)CC3)CC2)cn1 [Compound 40, 5-(4-((4-(8-chloro-4-oxo-3,4-dihydroquinazolin-2-yl)piperidin-1-yl)methyl)piperidin-1-yl)-N-methylpicolinamide] | ++ (++ indicates a value of 50 to less than 100)
 |  |  |  | 0.1 to 1 µM | < 0.01 µM |  | < 0.01 µM | CNC(=O)c1ccc(N2CC(N3CCC(Cc4nc5ccccc5c(=O)[nH]4)CC3)C2)cn1 [Compound 48] | +++ (+++ indicate a value of at least 100)
< 0.01 µM | > 10 µM | < 0.01 µM |  |  |  |  |  | CCc1ccc(C2CC(=O)N(C3CCN(c4ccc(C(=O)NC)nc4)CC3)C2)[nH]c1=O (racemic) [Compound 406rac] | +++ (+++ indicate a value of at least 100)
 |  |  | < 0.01 µM | 0.1 to 1 µM | < 0.01 µM |  |  | CNC(=O)c1ccc(N2CCC(N3CCC(c4nc5cccc(F)c5c(=O)[nH]4)C3)CC2)cn1 (single isomer, unassigned) [Compound 101b] | +++ (+++ indicate a value of at least 100)
< 0.01 µM | 0.1 to 1 µM | < 0.01 µM |  |  |  |  |  | CNC(=O)c1ccc(N2CCC(N3CCC(c4cc5c(c(=O)[nH]4)CCCN5)C3)CC2)cn1 (racemic) [Compound 233rac] | +++ (+++ indicate a value of at least 100)
< 0.01 µM | 0.01 to 0.1 µM | < 0.01 µM |  |  |  |  |  | CNC(=O)c1ccc(N2CCC(N3CCC(c4[nH]c(=O)c5c(F)cccc5c4F)C3)CC2)c(F)n1 (single isomer, unassigned) [Compound 402b] | +++ (+++ indicate a value of at least 100)
 |  |  | 0.1 to 1 µM | > 10 µM | 0.1 to 1 µM |  |  | CNC(=O)c1ccc(N2CCC(N3CCC(c4ccc(COC)c(=O)[nH]4)C3)CC2)cn1 (single isomer, unassigned) [Compound 207b] | − (− indicates a value of less than 10)
 | 0.1 to 1 µM | < 0.01 µM |  |  |  | < 0.01 µM |  | CCN1CCCc2c1nc(C13CC(C1)N(C1CCN(c4ccc(C(=O)NC)nc4F)CC1)C3)[nH]c2=O [Compound 384] | + (+ indicates a value of 10 to less than 50)
 |  |  | 0.1 to 1 µM | > 10 µM | 0.1 to 1 µM |  |  | CNC(=O)c1ccc(N2CCC(N3CCCC(c4nc5cc(F)ccc5c(=O)[nH]4)C3)CC2)cn1 (single isomer, unassigned) [Compound 108b] | + (+ indicates a value of 10 to less than 50)
 |  |  | < 0.01 µM | 1 to 10 µM | 0.01 to 0.1 µM |  |  | CNC(=O)c1ccc(N2CCC(N3CCC(c4nc5c(C)nn(C)c5c(=O)[nH]4)C3)CC2)cn1 (racemic) [Compound 143rac] | +++ (+++ indicate a value of at least 100)
< 0.01 µM | 0.1 to 1 µM | < 0.01 µM |  |  |  |  |  | CCc1ccc(C2CCN(C3CCN(c4ccc(C(=O)NC5CC5)nc4C#N)CC3)C2)[nH]c1=O (single isomer, unassigned) [Compound 409b] | +++ (+++ indicate a value of at least 100)
 |  |  | < 0.01 µM | 0.1 to 1 µM | < 0.01 µM |  |  | CCc1ccc(C2CCN(C3CCN(c4ccc(C(=O)NCC(F)(F)F)nc4)CC3)C2)[nH]c1=O (racemic) [Compound 153rac] | ++ (++ indicates a value of 50 to less than 100)
 |  |  | 0.1 to 1 µM | 1 to 10 µM | 0.1 to 1 µM |  |  | CNC(=O)c1ccc(N2CCC(N3CCC(C)(c4nc5ccccc5c(=O)[nH]4)C3)CC2)cn1 (single isomer, unassigned) [Compound 67a] | + (+ indicates a value of 10 to less than 50)

— patent US20250152585A1, “PHARMACEUTICAL COMPOUND” (Duke Street Bio Limited, priority 2022, published 2025)
